Assay results reported in ChEMBL document CHEMBL1201862, “PubChem BioAssay data set” (2004).
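Values below derive from 48-hour exposures of cells grown in 96-well plates, with endpoints linearly interpolated between the two concentrations bracketing the appropriate inhibition level. At the GI50, growth is halved.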 Active and inactive are the calls of the source. No stated cut-off is given here; in the data, active = GI50 up to about 1.1 µM and inactive = higher.

Assays:
Test in all cases: inhibition of tumour cell growth, NCI panel, 48 h
[1] = tested on: OVCAR-3
[2] = tested on: Malme-3M
[3] = tested on: 786-0
[4] = tested on: HL-60
[5] = tested on: EKVX
[6] = tested on: TK-10
[7] = tested on: OVCAR-5
[8] = tested on: SNB-19
[9] = tested on: SN12C
[10] = tested on: UACC-257
[11] = tested on: SNB-75
[12] = tested on: KM12
[13] = tested on: U-251
[14] = tested on: SF-268
[15] = tested on: CAKI-1
[16] = tested on: DU-145
[17] = tested on: MDA-MB-231
[18] = tested on: SK-MEL-2
[19] = tested on: Hs-578T

| Structure (SMILES) | GI50 [1] | GI50 [2] | GI50 [3] | GI50 [4] | GI50 [5] | GI50 [6] | GI50 [7] | GI50 [8] | GI50 [9] | GI50 [10] | GI50 [11] | GI50 [12] | GI50 [13] | GI50 [14] | GI50 [15] | GI50 [16] | GI50 [17] | GI50 [18] | GI50 [19] |
| --- | --- | --- | --- | --- | --- | --- | --- | --- | --- | --- | --- | --- | --- | --- | --- | --- | --- | --- | --- |
| O=C1CC[C@@H](S(=O)(=O)c2ccccc2)[C@@H](/C=C/c2ccccc2)O1 | > 100 µM (inactive) | > 100 µM (inactive) | > 100 µM (inactive) | > 100 µM (inactive) | > 100 µM (inactive) | > 100 µM (inactive) | > 100 µM (inactive) | > 100 µM (inactive) | > 100 µM (inactive) | > 100 µM (inactive) | > 100 µM (inactive) | > 100 µM (inactive) | > 100 µM (inactive) |  |  |  |  |  |  |
| Cc1ccc2c(ccc(/C=C\c3cc(C)c4cccnc4c3O)[n+]2C)c1 | 2.01 µM (inactive) | 8.41 µM (inactive) | 2.32 µM (inactive) | 0.454 µM (active) | 15.9 µM (inactive) |  | 22 µM (inactive) | 6.08 µM (inactive) | 2 µM (inactive) | 11.7 µM (inactive) |  | 1.32 µM (inactive) | 1.75 µM (inactive) | 9.25 µM (inactive) | 5.53 µM (inactive) |  |  |  |  |
| Cn1c2ccccc2c(=S)c2cc(NC(=O)CCCCC(=O)Nc3ccc4c(c3)c(=S)c3ccccc3n4C)ccc21 | > 100 µM (inactive) |  | 72.1 µM (inactive) |  | > 100 µM (inactive) | > 100 µM (inactive) | > 100 µM (inactive) | > 100 µM (inactive) | > 100 µM (inactive) | > 100 µM (inactive) | 54 µM (inactive) | > 100 µM (inactive) | 55.8 µM (inactive) | > 100 µM (inactive) | > 100 µM (inactive) | > 100 µM (inactive) | 65.9 µM (inactive) | > 100 µM (inactive) | > 100 µM (inactive) |
| CC1(C)OCC(C2OC(OC(=O)c3ccc([N+](=O)[O-])cc3)C3OC(C)(C)OC23)O1 (stereo not given) | > 100 µM (inactive) | > 100 µM (inactive) | 51.8 µM (inactive) |  | 61.8 µM (inactive) | > 100 µM (inactive) | > 100 µM (inactive) | 59 µM (inactive) | > 100 µM (inactive) | > 100 µM (inactive) | 16.6 µM (inactive) | > 100 µM (inactive) | 49 µM (inactive) | 20.5 µM (inactive) | > 100 µM (inactive) | > 100 µM (inactive) | > 100 µM (inactive) | > 100 µM (inactive) |  |
